Experiments:
Type in all cases: in vivo
[1] = tested on: giant foxtail (Setaria faberii); experiment: Test B postemergence
Procedure, shortened: (§1)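 Seeds were planted and sprayed preemergence with test chemical in a non-phytotoxic solvent mixture containing surfactant; postemergence plants (2 to 18 cm, 1- to 4-leaf stage) received the same formulation. Greenhouse hold 13 to 15 days, then visual rating versus untreated controls on a 0–100 scale (0 no effect, 100 complete control).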

[2] = tested on: barnyardgrass (Echinochloa crus-galli); experiment: Test B postemergence
Procedure, shortened: as §1

[3] = tested on: crabgrass (Digitaria sanguinalis); experiment: Test B postemergence
Procedure, shortened: as §1

[4] = tested on: morning glory (Ipomoea hederacea); experiment: Test B postemergence
Procedure, shortened: as §1

[5] = tested on: wheat (Triticum aestivum); experiment: Test B postemergence
Procedure, shortened: as §1

[6] = tested on: cocklebur (Xanthium strumarium); experiment: Test B postemergence
Procedure, shortened: as §1

corn (Zea mays) [7] = experiment: Test B postemergence
Procedure, shortened: as §1

[8] = tested on: blackgrass (Alopecurus myosuroides); experiment: Test B postemergence
Procedure, shortened: as §1

[9] = tested on: Surinam grass (Brachiaria decumbens); experiment: Test B postemergence
Procedure, shortened: as §1

[10] = tested on: pigweed (Amaranthus retroflexus); experiment: Test B postemergence
Procedure, shortened: as §1

[11] = tested on: lambsquarters (Chenopodium album); experiment: Test B postemergence
Procedure, shortened: as §1

wild oat (Avena fatua) = experiment: Test B postemergence
Procedure, shortened: as §1

[12] = tested on: velvetleaf (Abutilon theophrasti); experiment: Test B postemergence
Procedure, shortened: as §1

[13] = tested on: duck salad (Heteranthera limosa); experiment: Test C flooded paddy test; details: for Ducksalad plant response rating: Flooded Paddy, scale 0 to 100, 0 no effect, 100 complete control; for Plant response rating, Ducksalad: scale 0 to 100 (0 no effect, 100 complete control)
Procedure, shortened: (§2)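 Plants were grown to the 2-leaf stage under flooded paddy conditions and treated. They were then kept in a greenhouse for 12 to 14 days and visually rated against untreated controls on a 0–100 scale, where 0 is no effect and 100 is complete control.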

[14] = tested on: barnyardgrass (Echinochloa crus-galli); experiment: Test C flooded paddy test; details: for Barnyardgrass plant response rating: Flooded Paddy, scale 0 to 100, 0 no effect, 100 complete control; for Plant response rating, Barnyardgrass: scale 0 to 100 (0 no effect, 100 complete control)
Procedure, shortened: as §2

[15] = tested on: smallflower flatsedge (Cyperus difformis); experiment: Test C flooded paddy test; details: for Flatsedge plant response rating: Flooded Paddy, scale 0 to 100, 0 no effect, 100 complete control; for Plant response rating, Flatsedge: scale 0 to 100 (0 no effect, 100 complete control)
Procedure, shortened: as §2

rice (Oryza saliva) [16] = experiment: Test C flooded paddy test; details: for Rice plant response rating: Flooded Paddy, scale 0 to 100, 0 no effect, 100 complete control; for Plant response rating, Rice: scale 0 to 100 (0 no effect, 100 complete control)
Procedure, shortened: as §2

[17] = tested on: giant foxtail (Setaria faberii); experiment: Test B preemergence
Procedure, shortened: as §1

[18] = tested on: barnyardgrass (Echinochloa crus-galli); experiment: Test B preemergence
Procedure, shortened: as §1

[19] = tested on: crabgrass (Digitaria sanguinalis); experiment: Test B preemergence
Procedure, shortened: as §1

[20] = tested on: morning glory (Ipomoea hederacea); experiment: Test B preemergence
Procedure, shortened: as §1

[21] = tested on: cocklebur (Xanthium strumarium); experiment: Test B preemergence
Procedure, shortened: as §1

rice (Oryza saliva) [22] = experiment: Test B preemergence
Procedure, shortened: as §1

corn (Zea mays) [23] = experiment: Test B preemergence
Procedure, shortened: as §1

[24] = tested on: Surinam grass (Brachiaria decumbens); experiment: Test B preemergence
Procedure, shortened: as §1

[25] = tested on: pigweed (Amaranthus retroflexus); experiment: Test B preemergence
Procedure, shortened: as §1

[26] = tested on: lambsquarters (Chenopodium album); experiment: Test B preemergence
Procedure, shortened: as §1

[27] = tested on: velvetleaf (Abutilon theophrasti); experiment: Test B preemergence
Procedure, shortened: as §1

[28] = Rate 125 g/ha, scale 0 to 100, 0 no effect, 100 complete control
[29] = Rate 500 g/ha, scale 0 (no effect) to 100 (complete control), 13 to 15 days
[30] = flooded paddy test, Rate 125 g/ha
[31] = flooded paddy test, Rate 250 g/ha
[32] = flooded paddy test, Rate 62 g/ha, visually evaluated after 12 to 14 days, 0 = no effect, 100 = complete control
[33] = Preemergence, Rate 500 g/ha, scale 0 to 100, 0 no effect, 100 complete control
[34] = preemergence, Rate 125 g/ha, scale of 0 to 100 where 0 is no effect and 100 is complete control, 13 to 15 days
[35] = Rate 500 g/ha, scale 0 to 100, 0 is no effect, 100 is complete control, 13 to 15 days
[36] = flooded paddy test, Rate 62 g/ha

COc1cc(C)nc(N2CCC(n3ccc(C(C)(C)C)n3)C2=O)n1 (stereo not drawn) [Compound 137]
Plant response rating, Foxtail, Giant [1, 28]: 0
Plant response rating, Foxtail, Giant [1, 29]: 90
Plant response rating, Barnyardgrass [2, 28]: 0
Plant response rating, Barnyardgrass [2, 29]: 0
Plant response rating, Crabgrass [3, 28]: 0
Plant response rating, Crabgrass [3, 29]: 0
Plant response rating, Morningglory [4, 28]: 0
Plant response rating, Morningglory [4, 29]: 0
Plant response rating, Wheat [5, 28]: 0
Plant response rating, Wheat [5, 29]: 0
Plant response rating, Cocklebur [6, 28]: 0
Plant response rating, Cocklebur [6, 29]: 0
Plant response rating, Corn (corn (Zea mays) [7]; [28]): 0
Plant response rating, Corn (corn (Zea mays) [7]; [29]): 0
Plant response rating, Blackgrass [8, 28]: 0
Plant response rating, Blackgrass [8, 29]: 0
Plant response rating, Surinam grass [9, 28]: 0
Plant response rating, Surinam grass [9, 29]: 0
Plant response rating, Pigweed [10, 28]: 0
Plant response rating, Pigweed [10, 29]: 0
Plant response rating, Lambsquarters [11, 28]: 0
Plant response rating, Lambsquarters [11, 29]: 0
Plant response rating, Wild Oat (wild oat (Avena fatua); [28]): 0
Plant response rating, Wild Oat (wild oat (Avena fatua); [29]): 0
Plant response rating, Velvetleaf [12, 28]: 0
Plant response rating, Velvetleaf [12, 29]: 0
Ducksalad plant response rating ([13]; Rate 500 g/ha): 0
Plant response rating, Ducksalad [13, 30]: 0
Plant response rating, Ducksalad [13, 31]: 0
Plant response rating (scale 0 to 100), Ducksalad [13, 32]: 0
Barnyardgrass plant response rating ([14]; Rate 500 g/ha): 0
Plant response rating, Barnyardgrass [14, 30]: 0
Plant response rating, Barnyardgrass [14, 31]: 0
Plant response rating (scale 0 to 100), Barnyardgrass [14, 32]: 0
Flatsedge plant response rating ([15]; Rate 500 g/ha): 0
Plant response rating, Flatsedge [15, 30]: 0
Plant response rating, Flatsedge [15, 31]: 0
Plant response rating (scale 0 to 100), Flatsedge [15, 32]: 0
Rice plant response rating (rice (Oryza saliva) [16]; Rate 500 g/ha): 0
Plant response rating, Rice (rice (Oryza saliva) [16]; [30]): 0
Plant response rating, Rice (rice (Oryza saliva) [16]; [31]): 0
Plant response rating (scale 0 to 100), Rice (rice (Oryza saliva) [16]; [32]): 0
Plant response rating, Foxtail, Giant [17, 33]: 0
Plant response rating, Foxtail, Giant [17, 34]: 0
Plant response rating, Barnyardgrass [18, 33]: 40
Plant response rating, Barnyardgrass [18, 34]: 0
Plant response rating, Crabgrass [19, 33]: 80
Plant response rating, Crabgrass [19, 34]: 0
Plant response rating, Morningglory [20, 33]: 0
Plant response rating, Morningglory [20, 34]: 0
Plant response rating, Cocklebur [21, 33]: 80
Plant response rating, Cocklebur [21, 34]: 0
Plant response rating, Rice (rice (Oryza saliva) [22]; [33]): 70
Plant response rating, Rice (rice (Oryza saliva) [22]; [34]): 30
Plant response rating, Corn (corn (Zea mays) [23]; [33]): 0
Plant response rating, Corn (corn (Zea mays) [23]; [34]): 0
Plant response rating, Surinam grass [24, 33]: 50
Plant response rating, Surinam grass [24, 34]: 0
Plant response rating, Pigweed [25, 33]: 0
Plant response rating, Pigweed [25, 34]: 0
Plant response rating, Lambsquarters [26, 33]: 0
Plant response rating, Lambsquarters [26, 34]: 0
Plant response rating, Velvetleaf [27, 33]: 80
Plant response rating, Velvetleaf [27, 34]: 0

CCOc1cccc(N2CCC(n3ccc(C(C)CC)n3)C2=O)c1 (stereo not drawn) [Compound 126]
Plant response rating, Foxtail, Giant [1, 28]: 0
Plant response rating, Barnyardgrass [2, 28]: 0
Plant response rating, Barnyardgrass [2, 35]: 80
Plant response rating, Crabgrass [3, 28]: 0
Plant response rating, Morningglory [4, 28]: 0
Plant response rating, Wheat [5, 28]: 0
Plant response rating, Cocklebur [6, 28]: 0
Plant response rating, Cocklebur [6, 35]: 70
Plant response rating, Corn (corn (Zea mays) [7]; [28]): 0
Plant response rating, Corn (corn (Zea mays) [7]; [35]): 0
Plant response rating, Blackgrass [8, 28]: 0
Plant response rating, Blackgrass [8, 35]: 0
Plant response rating, Surinam grass [9, 28]: 0
Plant response rating, Surinam grass [9, 35]: 0
Plant response rating, Pigweed [10, 28]: 30
Plant response rating, Lambsquarters [11, 28]: 100
Plant response rating, Wild Oat (wild oat (Avena fatua); [28]): 0
Plant response rating, Velvetleaf [12, 28]: 0
Ducksalad plant response rating ([13]; Rate 250 g/ha): 100
Ducksalad plant response rating ([13]; Rate 500 g/ha): 100
Plant response rating, Ducksalad [13, 36]: 60
Plant response rating, Ducksalad [13, 30]: 100
Barnyardgrass plant response rating ([14]; Rate 250 g/ha): 100
Barnyardgrass plant response rating ([14]; Rate 500 g/ha): 100
Plant response rating, Barnyardgrass [14, 36]: 35
Plant response rating, Barnyardgrass [14, 30]: 100
Flatsedge plant response rating ([15]; Rate 250 g/ha): 100
Flatsedge plant response rating ([15]; Rate 500 g/ha): 100
Plant response rating, Flatsedge [15, 36]: 100
Plant response rating, Flatsedge [15, 30]: 100
Rice plant response rating (rice (Oryza saliva) [16]; Rate 250 g/ha): 20
Rice plant response rating (rice (Oryza saliva) [16]; Rate 500 g/ha): 60
Plant response rating, Rice (rice (Oryza saliva) [16]; [36]): 0
Plant response rating, Rice (rice (Oryza saliva) [16]; [30]): 20
Plant response rating, Foxtail, Giant [17, 33]: 100
Plant response rating, Foxtail, Giant [17, 34]: 100
Plant response rating, Barnyardgrass [18, 33]: 100
Plant response rating, Barnyardgrass [18, 34]: 100
Plant response rating, Crabgrass [19, 33]: 100
Plant response rating, Crabgrass [19, 34]: 100
Plant response rating, Morningglory [20, 33]: 100
Plant response rating, Morningglory [20, 34]: 70
Plant response rating, Cocklebur [21, 33]: 70
Plant response rating, Cocklebur [21, 34]: 50
Plant response rating, Rice (rice (Oryza saliva) [22]; [33]): 100
Plant response rating, Rice (rice (Oryza saliva) [22]; [34]): 70
Plant response rating, Corn (corn (Zea mays) [23]; [33]): 50
Plant response rating, Corn (corn (Zea mays) [23]; [34]): 30
Plant response rating, Surinam grass [24, 33]: 100
Plant response rating, Surinam grass [24, 34]: 100
Plant response rating, Pigweed [25, 33]: 100
Plant response rating, Pigweed [25, 34]: 100
Plant response rating, Lambsquarters [26, 33]: 100
Plant response rating, Lambsquarters [26, 34]: 100
Plant response rating, Velvetleaf [27, 33]: 60
Plant response rating, Velvetleaf [27, 34]: 0
